This passage reports EC90 results from patent publication US8697694B2, “Substituted pyridine and pyrimidine derivatives and their use in treating viral infections” (priority 2008, dated 2014).

Where only a bound is given, the exact number is not on record here.

In the first assay the test system is HCV replicon cells. As to the kind of experiment: Cell-based HCV replicon assay (replicon RNA level by real time PCR, Taqman). To be noted: Hepatitis C virus, 72 h, HCV replicon cells, harvested day 3, replicon RNA by real time PCR; given as number; read-out: EC90 (μM) range. As to the method:
Assays Cell-Based HCV Replicon Assay
To measure cell-based anti-HCV activity of the compounds of the present invention, replicon cells were seeded at 5000 cells/well in 96-well collagen I-coated Nunc plates in the presence of the compound of the invention. Various concentrations of a compound of the invention, typically in 10 serial 2-fold dilutions, were added to the assay mixture, the starting concentration of the compound ranging from 25 μM to 1 μM. The final concentration of DMSO was 0.5%, fetal bovine serum was 10%, in the assay media. Cells were harvested on day 3 by the addition of 1× cell lysis buffer (Ambion cat #8721). The replicon RNA level was measured using real time PCR (Taqman assay). The amplicon was located in 5B. The PCR primers were: 5B.2F, ATGGACAGGCGCCCTGA (SEQ. ID NO. 1); 5B.2R, […] (SEQ. ID NO. 2); the probe sequence was FAM-labeled CACGCCATGCGCTGCGG (SEQ. ID NO. 3). GAPDH RNA was used as endogenous control and was amplified in the same reaction as NS5B (multiplex PCR) using primers and VIC-labeled probe recommended by the manufacturer (PE Applied Biosystem). The real-time RT-PCR reactions were run on ABI PRISM 7900HT Sequence Detection System using the following program: 48′C for 30 min, 95° C. for 10 min, 40 cycles of 95° C. for 15 sec, 60° C. for 1 min. The ΔCT values (CT5B-CTGAPDH) were plotted against the concentration of test compound and fitted to the sigmoid dose-response model using GraphPad PRISM software. EC50 was defined as the concentration of inhibitor necessary to achieve ΔCT=1 over the projected baseline; EC90 the concentration necessary to achieve ΔCT=3.2 over the baseline. Alternatively, to quantitate the absolute amount of replicon RNA, a standard curve was established by including serially diluted T7 transcripts of replicon RNA in the Taqman assay. All Taqman reagents were from PE Applied Biosystems. Such an assay procedure was described in detail in e.g. Malcolm et al., Antimicrobial Agents and Chemotherapy 50: 1013-1020 (2006).
HCV Replicon assay data for compounds of the invention that were tested was obtained using the above method. Calculated EC90 values are reported for each compound in Table I as a falling within the following ranges: […]
One may read the EC90 as the point of the concentration-response curve where the effect stands at 90%. For the compound `Cc1nc(NCC(F)(F)F)nc(N[C@@H]2C[C@H](COC(=O)N3CCCC3)[C@@H](O)[C@H]2O)c1-c1nc2ccccc2s1` [Example 64], the 90% effect concentration (EC90) amounted to 0.8 µM. The same measure, in the same setting: the same measure for `COCCNc1nc(C)c(-c2cc3cc(OCC(C)(C)C)nc(C)c3o2)c(N[C@@H]2C[C@H](CO)[C@@H](O)[C@H]2O)n1` [Example 49]: more than 25 µM.

The assay is the same for the next values; noted with them: Hepatitis C virus, 72 h, HCV replicon cells, harvested day 3, replicon RNA by real time PCR; reported as range class; read-out: EC90 (μM) range.
`Cc1nc(N(C)C)nc(N[C@@H]2C[C@H](CO)[C@@H](O)[C@H]2O)c1-c1nc2ccccc2s1` [Example 313]: the EC90 is less than 0.5 µM.

As for `CCCc1cc2cc(-c3c(Cl)nc(NC)nc3N[C@@H]3C[C@H](CO)[C@@H](O)[C@H]3O)oc2c(C)n1` [Example 312], the EC90 was less than 0.5 µM. Still for that read-out and setting: the same measure for `OC[C@H]1C[C@@H](Nc2nc(NCC(F)F)nc(Cl)c2-c2nc3ccccc3s2)[C@H](O)[C@@H]1O` [Example 214]: less than 0.5 µM. Still for that read-out and setting: the same measure for `Cc1cncc2oc(-c3c(Cl)nc(N)nc3N[C@@H]3C[C@H](CO)[C@@H](O)[C@H]3O)cc12` [Example 304]: more than 5 µM; for `CCOc1ccc2nc(-c3c(Cl)nc(N)nc3N[C@@H]3C[C@H](CO)[C@H]4OC(C)(C)O[C@H]43)sc2c1` [Example 195]: less than 0.5 µM; for `Nc1nc(Cl)c(-c2cnccn2)c(N[C@@H]2C[C@H](CO)[C@@H](O)[C@H]2O)n1` [Example 159]: more than 5 µM. On the same count and under the same terms, the same measure for `Cc1nc(NCC(F)F)nc(N[C@@H]2C[C@H](CO)[C@@H](O)[C@H]2O)c1-c1nc2ccccc2s1` [Example 215]: less than 0.5 µM; for `CN(C)c1ccc2sc(-c3c(Cl)nc(N(C)C)nc3N[C@@H]3C[C@H](CO)[C@@H](O)[C@H]3O)nc2c1` [Example 204]: more than 5 µM.

Still in this assay, the particulars now being: Hepatitis C virus, 72 h, HCV replicon cells, harvested on day 3, replicon RNA by real time PCR; calculated EC90 reported as range class; read-out: EC90 (μM) range.
With `Cc1nc(NCc2ccccn2)nc(N[C@@H]2C[C@H](CO)[C@H]3OC(C)(C)O[C@H]32)c1-c1nc2ccccc2s1` [Example 462], the EC90 is 0.5 to 5 µM. Still for that read-out and setting: the same measure for `CCc1cc2cc(-c3c(C)nc(NCc4ccco4)nc3N[C@@H]3C[C@H](CO)[C@@H](O)[C@H]3O)oc2cn1` [Example 705]: less than 0.5 µM; for `CCc1cc2cc(-c3c(C)nc(NCc4ccccn4)nc3N[C@@H]3C[C@H](CO)[C@@H](O)[C@H]3O)oc2cn1` [Example 344]: less than 0.5 µM; for `Cc1ccc(CNc2nc(C)c(-c3nc4ccccc4s3)c(N[C@@H]3C[C@H](CO)[C@H]4OC(C)(C)O[C@H]43)n2)cc1` [Example 489]: 0.5 to 5 µM. Still for that read-out and setting: the same measure for `CCCCCNc1nc(C)c(-c2cc3cc(C)nc(C)c3o2)c(N[C@@H]2C[C@H](CO)[C@@H](O)[C@H]2O)n1` [Example 452]: less than 0.5 µM.

Take `CCCCCNc1nc(C)c(-c2cc3cc(CC)ncc3o2)c(N[C@@H]2C[C@H](CO)[C@@H](O)[C@H]2O)n1` [Example 514]: the concentration for an effect of 90% (EC90) is less than 0.5 µM. On the same count and under the same terms, the value for `Cc1cc2cc(-c3c(Cl)nc(NCC(F)(F)F)nc3N[C@@H]3C[C@H](CO)[C@@H](O)[C@H]3O)oc2c(C)n1` [Example 456] was less than 0.5 µM; that for `Cc1nc(NCC2CC2)nc(N[C@@H]2C[C@H](CO)[C@@H](O)[C@H]2O)c1-c1nc2cnccc2s1` [Example 523] was less than 0.5 µM.

The assay is the same for the next values; noted with them: Hepatitis C virus, 72 h, HCV replicon cells, replicon RNA level by real time PCR (Taqman), day 3; calculated EC90; read-out: EC90 (μM) range.
As for `Cc1nc(NCC(O)c2ccccc2)nc(N[C@@H]2C[C@H](CO)[C@@H](O)[C@H]2O)c1-c1nc2ccccc2s1` (stereo partly shown) [Example 1919], the concentration for an effect of 90% (EC90) is 0.5 to 5 µM. Turning to `Cc1ccc([C@H](Nc2nc(C)c(-c3nc4ccccc4s3)c(N[C@@H]3C[C@H](CO)[C@@H](O)[C@H]3O)n2)C(F)(F)F)cc1` [Example 2005], the EC90 was 0.5 to 5 µM.

Still in this assay, the particulars now being: Hepatitis C virus, 72 h, HCV replicon cells, replicon RNA level by real time PCR (Taqman), harvested on day 3; calculated EC90 reported as range class; read-out: EC90 (μM) range.
`COc1cc(OC)cc(C(C)Nc2nc(C)c(-c3nc4cnccc4s3)c(N[C@@H]3C[C@H](CO)[C@@H](O)[C@H]3O)n2)c1` (stereo partly shown) [Example 1306]: the EC90 is less than 0.5 µM. Still for that read-out and setting: the value for `[2H]C([2H])(Nc1nc(C)c(-c2nc3ccccc3s2)c(N[C@@H]2C[C@H](CO)[C@@H](O)[C@H]2O)n1)c1ccccc1` [Example 1245] was less than 0.5 µM; that for `OC[C@H]1C[C@@H](Nc2nc(NCC(F)(F)F)ncc2-c2nc3ccccc3s2)[C@H](O)[C@@H]1O` [Example 1058] was 0.5 to 5 µM. Same read-out and setting: the value for `Cc1nc(NCC2CC2)nc(N[C@@H]2C[C@H](CO)C[C@H]2O)c1-c1nc2ccccc2s1` [Example 1251] was 0.5 to 5 µM; that for `COCCNc1nc(C#N)c(-c2nc3ccccc3s2)c(N[C@@H]2C[C@H](CO)[C@@H](O)[C@H]2O)n1` [Example 1301] was more than 5 µM.

Regarding `Cc1nc(NCC2CC2)nc(N[C@@H]2C[C@H](CO)[C@@H](O)[C@@H]2O)c1-c1nc2ccccc2s1` [Example 1252], the EC90 is more than 5 µM. For `Cc1nc(NCc2cccc(C(=O)O)c2)nc(N[C@@H]2C[C@H](CO)[C@@H](O)[C@H]2O)c1-c1nc2ccccc2s1` [Example 1219], the concentration for an effect of 90% (EC90) is more than 5 µM.

Turning to `COCc1cc2cc(-c3c(C)nc(NCc4ccco4)nc3N[C@@H]3C[C@H](CO)[C@H]4OC(C)(C)O[C@H]43)oc2cn1` [Example 1107], the EC90 was 0.5 to 5 µM. `Cc1cnc(CNc2nc(C)c(-c3nc4ccccc4s3)c(N[C@@H]3C[C@H](CO)[C@@H](O)[C@H]3O)n2)s1` [Example 1204]: the concentration for an effect of 90% (EC90) was less than 0.5 µM. Same read-out and setting: the same measure for `Cc1nc(NCC(F)(F)F)nc(N[C@@H]2C[C@H](CN3CCOCC3)[C@@H](O)[C@H]2O)c1-c1nc2ccccc2s1` [Example 1015]: 0.5 to 5 µM; for `CCOc1nc(C)cc2cc(-c3c(C)nc(NC(C)c4ccc(C)cc4)nc3N[C@@H]3C[C@H](CO)[C@@H](O)[C@H]3O)oc12` (stereo partly shown) [Example 1249]: 0.5 to 5 µM; for `Cc1cc2sc(-c3c(C)nc(N[C@@H](C)c4ccc(OC(F)(F)F)cc4)nc3N[C@@H]3C[C@H](CO)[C@@H](O)[C@H]3O)nc2c(C)n1` [Example 1137]: less than 0.5 µM. As for `COc1cccc(C)c1Nc1nc(C)c(-c2nc3ccccc3s2)c(N[C@@H]2C[C@H](CO)[C@@H](O)[C@H]2O)n1` [Example 1233], the EC90 is 0.5 to 5 µM.

In the case of `Cc1nc(NCCC(=O)O)nc(N[C@@H]2C[C@H](CO)[C@@H](O)[C@H]2O)c1-c1nc2ccccc2s1` [Example 1012], the EC90 is more than 5 µM. The same measure, in the same setting: the value for `Cc1nc(NC(C)(C)c2ccccc2)nc(N[C@@H]2C[C@H](CO)[C@@H](O)[C@H]2O)c1-c1nc2cnccc2s1` [Example 1229] was 0.5 to 5 µM; that for `Cc1nc(N(C)c2ccccc2)nc(N[C@@H]2C[C@H](CO)[C@@H](O)[C@H]2O)c1-c1nc2cnccc2s1` [Example 1217] was more than 5 µM.

Staying with this assay, now noted: Hepatitis C virus, 72 h, HCV replicon cells, replicon RNA level by real time PCR, harvested day 3; read-out: EC90 (μM) range.
For the compound `Cc1nc(N[C@H](C)c2ccc(-n3cccn3)cc2)nc(N[C@@H]2C[C@H](CO)[C@@H](O)[C@H]2O)c1-c1nc2c(C)nccc2s1` [Example 1355], the EC90 is less than 0.5 µM.

In the case of `Cc1nc(NCC(C)(C)C)nc(N[C@H]2C[C@@H](CO)[C@H](O)[C@@H]2O)c1-c1nc2ccccc2s1` [Example 1502], the concentration for an effect of 90% (EC90) is more than 5 µM. As to `Cc1nc(NCC2CC2)nc(N[C@@H]2CC[C@@H](O)[C@@]2(C)O)c1-c1nc2cnccc2s1` [Example 1704], the EC90 is less than 0.5 µM. On the same count and under the same terms, the value for `CCc1ccc([C@@H](C)Nc2nc(C)c(-c3nc4c(C)nccc4s3)c(N[C@@H]3C[C@H](CO)[C@@H](O)[C@H]3O)n2)cc1` [Example 1526] was less than 0.5 µM; that for `COC(=O)NC[C@H]1C[C@@H](Nc2nc(NCC(F)(F)F)nc(C)c2-c2nc3ccccc3s2)[C@H](O)[C@@H]1O` [Example 1522] was 0.5 to 5 µM.

As to `CC[C@@H](Nc1nc(C)c(-c2nc3c(C)nccc3s2)c(N[C@@H]2C[C@H](CO)[C@@H](O)[C@H]2O)n1)c1ccc(C)cc1` [Example 1363], the 90% effect concentration (EC90) was less than 0.5 µM. On the same count and under the same terms, the same measure for `Cc1nc(NCC(F)(F)F)nc(NC2CCN(C(=O)OC(C)(C)C)CC2)c1-c1nc2ccccc2s1` [Example 1514]: more than 5 µM; for `COc1ccc([C@@H](C)Nc2nc(C)c(-c3nc4c(C)nccc4s3)c(N[C@@H]3C[C@H](CO)[C@@H](O)[C@H]3O)n2)cc1` [Example 1529]: less than 0.5 µM. On the same count and under the same terms, the same measure for `Cc1ccc(CCNc2nc(C)c(-c3nc4cnccc4s3)c(N[C@@H]3C[C@H](CO)[C@@H](O)[C@H]3O)n2)s1` [Example 1813]: less than 0.5 µM; for `CCOc1nccc2sc(-c3c(C)nc(N[C@H](C)c4ccc(C)cc4)nc3N[C@@H]3C[C@H](CO)[C@@H](O)[C@H]3O)nc12` [Example 1343]: less than 0.5 µM.
